# Data from patent US8618170B2, “Oral formulations of bis(thiohydrazide amides)” (Synta Pharmaceuticals Corp., priority 2007, dated 2013).
# Tests used:
# [1] = Pharmacokinetics after IV or oral administration in dog; type: in vivo; conditions: Beagle dog M; for AUC(0-inf) / Cmax / Tmax / half-life / bioavailability: male, plasma
# Excerpt: (§1) The pharmacokinetics of compounds of the invention were compared in mouse, rat and dog by either intravenous or oral administration in various formulations including drug powder in capsules or in combination with generally recognized as safe (GRAS) excipients. After administration in animals, blood samples were collected at the appropriate time points and plasma was obtained for bioanalysis. Compounds were extracted by protein precipitation and analyzed by LC-UV or LC-MS/MS. PK analysis was performed by noncompartmental analysis using WinNonlin. Oral bioavailability (% F) was calculated based on AUC of Compound 1.
# (§2) Blood was collected into heparinized tubes that contained dithioreitol (DTT; ˜2 mg/mL) at each time point. After centrifugation plasma was transferred to a new tube that contained DMSO (Plasma:DMSO ration 2:1 for rat/mouse, 9:1 for dog).
# (§3) The pharmacokinetic parameters for compounds of the invention were determined from the plasma concentration data using the Noncompartmental Analysis module in WinNonlin, version 5.0 (Pharsight Corporation).
# [2] = Pharmacokinetics after IV or oral administration in mouse; type: in vivo; conditions: female, plasma, CD-1 mouse F
# Excerpt: as §1, §2, §3
# [3] = Pharmacokinetics after IV or oral administration in rat; type: in vivo, SD rat; conditions: for AUC(0-inf) / Cmax / Tmax / half-life / bioavailability: male, Sprague-Dawley, plasma
# Excerpt: as §1, §2, §3
# Aqueous solubility = type: physicochemical; conditions: water
# [4] = beagle, dog, iv, 10 mg/kg, 1 h IV infusion, EES (sol'n)
# [5] = beagle, dog, po, 50 mg/kg, TPGS/PEG400 (sol'n)
# [6] = beagle, dog, po, 50 mg/kg, capsule (powder), 50 mg/kg as Compound 1 (free acid)
# [7] = beagle, dog, po, 50 mg/kg, nanoparticles (colloidal dispersion)
# [8] = IV bolus, EES (sol'n), 10 mg/kg
# [9] = PO, TPGS/PEG400 (sol'n), 100 mg/kg
# [10] = rat, iv, 25 mg/kg, SD rat M, IV bolus, EES (sol'n)
# [11] = rat, iv, 50 mg/kg, SD rat M, IV bolus, Phospholipid
# [12] = rat, iv, 80 mg/kg, SD rat M, IV bolus, HP-β-CD/saline
# [13] = rat, iv, 80 mg/kg, SD rat M, IV bolus, Lyophilized HP-β-CD/saline
# [14] = rat, other: PI, 80 mg/kg, SD rat M, route PI, Lyophilized HP-β-CD/saline, 80 mg/kg
# [15] = rat, po, 50 mg/kg, SD rat M, 0.5% MC (suspension)
# [16] = rat, po, 50 mg/kg, SD rat M, Phospholipid
# [17] = rat, po, 50 mg/kg, SD rat M, TPGS/PEG400 (sol'n)
# [18] = rat, po, 50 mg/kg, SD rat M, nanoparticles (colloidal dispersion)
# [19] = rat, po, 80 mg/kg, SD rat M, HP-β-CD/saline
# [20] = rat, PO, nanoparticles (colloidal dispersion) vs 0.5% methylcellulose suspension
# [21] = rat, iv, 25 mg/kg, SD rat M, IV bolus, Saline
# [22] = rat, po, 50 mg/kg, SD rat M, Saline
# [23] = PO, capsule (powder), 50 mg/kg as Compound 1 (free acid)
# [24] = rat, po, 50 mg/kg, SD rat M, capsule (powder), 50 mg/kg as Compound 1 (free acid)
smiles,measurement,setting,value
CN(NC(=O)CC(=O)NN(C)C(=S)c1ccccc1)C(=S)c1ccccc1 [Compound 1],AUC(0-inf),[1]; [4],25800 ng·h/mL
same,Cmax,[1]; [4],11600 ng/mL
same,Tmax,[1]; [4],60 min
same,half-life,[1]; [4],72 min
same,AUC(0-inf),[1]; [5],87500 ng·h/mL
same,Cmax,[1]; [5],38100 ng/mL
same,Tmax,[1]; [5],24 min
same,half-life,[1]; [5],132 min
same,bioavailability,"[1]; beagle, dog, po, 50 mg/kg, TPGS/PEG400 (sol'n), reference Compound 1 IV infusion",68%
same,AUC(0-inf),[1]; [6],6520 ng·h/mL
same,Cmax,[1]; [6],1330 ng/mL
same,Tmax,[1]; [6],120 min
same,half-life,[1]; [6],150 min
same,bioavailability,"[1]; beagle, dog, po, 50 mg/kg, capsule (powder), 50 mg/kg as Compound 1 (free acid), reference Compound 1 IV infusion, based on AUC of Compound 1",< 5%
same,AUC(0-inf),[1]; [7],57500 ng·h/mL
same,Cmax,[1]; [7],16800 ng/mL
same,Tmax,[1]; [7],48 min
same,half-life,[1]; [7],288 min
same,bioavailability,"[1]; beagle, dog, po, 50 mg/kg, nanoparticles (colloidal dispersion), reference Compound 1 IV infusion",44.6%
same,AUC(0-inf),[2]; [8],3950 ng·h/mL
same,Cmax,[2]; [8],6500 ng/mL
same,Tmax,[2]; [8],4.98 min
same,half-life,[2]; [8],54 min
same,AUC(0-inf),[2]; [9],8640 ng·h/mL
same,Cmax,[2]; [9],12400 ng/mL
same,Tmax,[2]; [9],15 min
same,half-life,[2]; [9],60 min
same,bioavailability,"[2]; PO, TPGS/PEG400 (sol'n), 100 mg/kg, reference Compound 1 IV bolus",21.9%
same,AUC(0-inf),[3]; [10],9270 ng·h/mL
same,Cmax,[3]; [10],29000 ng/mL
same,Tmax,[3]; [10],4.98 min
same,half-life,[3]; [10],102 min
same,AUC(0-inf),[3]; [11],29700 ng·h/mL
same,Cmax,[3]; [11],95300 ng/mL
same,Tmax,[3]; [11],4.98 min
same,half-life,[3]; [11],54 min
same,AUC(0-inf),[3]; [12],23700 ng·h/mL
same,Cmax,[3]; [12],58800 ng/mL
same,Tmax,[3]; [12],4.98 min
same,half-life,[3]; [12],48 min
same,AUC(0-inf),[3]; [13],25700 ng·h/mL
same,Cmax,[3]; [13],63800 ng/mL
same,Tmax,[3]; [13],4.98 min
same,half-life,[3]; [13],24 min
same,AUC(0-inf),[3]; [14],5190 ng·h/mL
same,Cmax,[3]; [14],2550 ng/mL
same,Tmax,[3]; [14],15 min
same,bioavailability,[3]; [14],21.3%
same,half-life,[3]; [14],138 min
same,AUC(0-inf),[3]; [15],1220 ng·h/mL
same,Cmax,[3]; [15],280 ng/mL
same,Tmax,[3]; [15],30 min
same,half-life,[3]; [15],192 min
same,bioavailability,"[3]; rat, po, 50 mg/kg, SD rat M, 0.5% MC (suspension), reference Compound 1 IV bolus",6.6%
same,AUC(0-inf),[3]; [16],3790 ng·h/mL
same,Cmax,[3]; [16],2050 ng/mL
same,Tmax,[3]; [16],15 to 30 min
same,bioavailability,[3]; [16],8.8%
same,half-life,[3]; [16],54 min
same,AUC(0-inf),[3]; [17],2770 ng·h/mL
same,Cmax,[3]; [17],1410 ng/mL
same,Tmax,[3]; [17],18 min
same,half-life,[3]; [17],126 min
same,bioavailability,"[3]; rat, po, 50 mg/kg, SD rat M, TPGS/PEG400 (sol'n), reference Compound 1 IV bolus",14.9%
same,AUC(0-inf),[3]; [18],2370 ng·h/mL
same,Cmax,[3]; [18],1070 ng/mL
same,Tmax,[3]; [18],18 min
same,half-life,[3]; [18],186 min
same,bioavailability,"[3]; rat, po, 50 mg/kg, SD rat M, nanoparticles (colloidal dispersion), reference Compound 1 IV bolus",12.8%
same,AUC(0-inf),[3]; [19],4330 ng·h/mL
same,Cmax,[3]; [19],2210 ng/mL
same,Tmax,[3]; [19],15 to 30 min
same,bioavailability,[3]; [19],17.5%
same,half-life,[3]; [19],72 min
same,AUC after nanoparticles compared with the suspension,[3]; [20],higher
same,Cmax after nanoparticles compared with the suspension,[3]; [20],higher
same,solubility,Aqueous solubility,< 0.1 mg/mL
CN(NC(=O)CC(=O)NN(C)C(=S)c1ccccc1)C(=S)c1ccccc1 [Compound 22],bioavailability,"[3]; SD rat M, PO, Saline, 50 mg/kg",10.5%
same,AUC(0-inf),[3]; [21],11600 ng·h/mL
same,Cmax,[3]; [21],39100 ng/mL
same,half-life,[3]; [21],222 min
same,AUC(0-inf),[3]; [22],4760 ng·h/mL
same,Cmax,[3]; [22],2400 ng/mL
same,Tmax,[3]; [22],37.8 min
same,half-life,[3]; [22],150 min
CN(NC(=O)CC(=O)NN(C)C(=S)c1ccccc1)C(=S)c1ccccc1 [Compound 26],AUC(0-inf),[1]; [23],45600 ng·h/mL
same,Cmax,[1]; [23],19700 ng/mL
same,Tmax,[1]; [23],60 min
same,half-life,[1]; [23],180 min
same,AUC(0-inf),[3]; [24],1080 ng·h/mL
same,Cmax,[3]; [24],250 ng/mL
same,Tmax,[3]; [24],54 min
same,half-life,[3]; [24],222 min
CN(/N=C(\[O-])C/C([O-])=N/N(C)C(=S)c1ccccc1)C(=S)c1ccccc1.[Na+].[Na+] [Compound 19],% F,"[1]; PO, capsule (powder), 50 mg/kg as Compound 1 (free acid), reference Compound 1 IV infusion, based on AUC of Compound 1, 50 mg/kg",80.2%
same,AUC(0-inf),[1]; [6],103000 ng·h/mL
same,Cmax,[1]; [6],40400 ng/mL
same,Tmax,[1]; [6],48 min
same,half-life,[1]; [6],126 min
same,% F,"[3]; SD rat M, PO, capsule (powder), 50 mg/kg as Compound 1 (free acid), reference Compound 1 IV bolus, based on AUC of Compound 1, 50 mg/kg",7.5%
same,AUC(0-inf),[3]; [24],1410 ng·h/mL
same,Cmax,[3]; [24],640 ng/mL
same,Tmax,[3]; [24],36 min
same,half-life,[3]; [24],234 min
same,bioavailability,"[3]; rat, po, 50 mg/kg, SD rat M, capsule (powder), 50 mg/kg as Compound 1 (free acid), reference Compound 1 IV bolus, based on AUC of Compound 1",5.7%
same,solubility,Aqueous solubility,~50 mg/mL
